Source: PubChem BioAssay (NCI)
Values joined by “and” are separate entries in the source; they are usually repeats but may differ in a detail not shown here. Equal values may be shown once.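 In this assay, cells in 96-well plates receive the compound at five concentrations for 48 hours. Endpoints are linearly interpolated between the surrounding concentrations. The concentration for 50% growth inhibition is given as GI50. TGI marks complete inhibition of growth.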 Where a SMILES comes first, the peptide text is derived from it. [ ]: non-standard residue; d: D form. Phe(4-Cl) = N[CH](Cc1ccc(Cl)cc1)C(=O)O

Tests used:
Test in all cases: DTP human tumour cell line panel, 48 h
TK-10 renal = tested on: TK-10 renal
SF-268 CNS = tested on: SF-268 CNS
SK-OV-3 ovarian = tested on: SK-OV-3 ovarian
NCI-H460 lung = tested on: NCI-H460 lung
KM12 colon = tested on: KM12 colon
SF-295 CNS = tested on: SF-295 CNS
IGROV1 ovarian = tested on: IGROV1 ovarian
UO-31 renal = tested on: UO-31 renal
MCF7 breast = tested on: MCF7 breast
BT-549 breast = tested on: BT-549 breast

SMILES | TGI (TK-10 renal) [µM] | TGI (SF-268 CNS) [µM] | TGI (SK-OV-3 ovarian) [µM] | TGI (NCI-H460 lung) [µM] | TGI (KM12 colon) [µM] | TGI (SF-295 CNS) [µM] | TGI (IGROV1 ovarian) [µM] | TGI (UO-31 renal) [µM] | GI50 (TK-10 renal) | GI50 (SF-268 CNS) | GI50 (SK-OV-3 ovarian) [µM] | GI50 (NCI-H460 lung) | GI50 (KM12 colon) | GI50 (SF-295 CNS) | GI50 (MCF7 breast) [µM] | TGI (MCF7 breast) [µM] | GI50 (BT-549 breast) [µM] | TGI (BT-549 breast) [µM] | GI50 (UO-31 renal) | GI50 (IGROV1 ovarian)
COC(=O)C1=NC(=S)NC(c2ccccc2)C1c1nc2ccccc2s1 (stereo unspecified) | > 100 | > 100 | > 100 | > 100 | > 100 | > 100 | > 100 | > 100 |  |  |  |  |  |  |  |  |  |  |  | 
CCN(CC)CCN1CC(O)=C(c2nc(-c3ccc(Cl)cc3)cs2)C1=N | 5.65 | 3.93 | 25.2 | 4.29 | 8.09 | 3.49 |  | 20.2 | 2.86 µM | 1.87 µM | 4.76 | 2.04 µM | 2.72 µM | 1.8 µM | 1.42 | 3.36 | 5.17 | 21.2 | 3.83 µM | 
CC1=C(C)CC2(CCCCC2=O)S(=O)C1 (stereo unspecified) | > 100 | > 100 | > 100 | > 100 | > 100 | > 100 | > 100 | > 100 |  |  |  |  |  |  |  |  |  |  |  | 
CC(O)C(NC(=O)C(Cc1ccccc1)NC(=O)C(NC(=O)C(CCCCN)NC(=O)C(Cc1c[nH]c2ccccc12)NC(=O)C(Cc1ccc(O)cc1)NC(=O)C(Cc1ccc(Cl)cc1)NC(=O)C(N)Cc1ccccc1)C(C)O)C(N)=O (stereo unspecified) (H-F[Phe(4-Cl)]YWKTFT-NH2; configuration not given here) |  |  | 46.4 | 32.5 | 33.5 | 21.3 | 44.8 | 37.5 |  |  |  |  |  |  |  |  |  |  |  | 
CC(=O)OC[C@]12CC[C@H]3[C@@H](C[C@H]4O[C@]45[C@@H](O)C=CC(=O)[C@]35C)[C@@H]1CC[C@@H]2[C@H](C)[C@H]1CC(C)=C(C)C(=O)O1 | 1.82 | 1.28 | 5.98 | 3.53 | 1.11 | 4.23 | 2.7 | 2 | 0.548 µM and 0.68 µM | 0.397 µM and 0.376 µM | 2.78 | 0.588 µM and 1.07 µM | 0.467 µM and 0.349 µM | 0.974 µM and 1.89 µM |  |  |  |  | 0.84 µM and 0.776 µM | 0.706 µM and 0.924 µM
NC1=NN(c2ccccc2)C(=O)C1C(=O)CCC(=O)Nc1cccc(C(F)(F)F)c1 (stereo unspecified) | > 100 | > 100 | > 100 | > 100 | > 100 | > 100 | > 100 | > 100 |  |  |  |  |  |  |  |  |  |  |  | 
O=C1c2ccccc2-c2c1c1ccccc1c(=O)n2Cc1ccccc1 | > 100 | > 100 | > 100 |  | > 100 | > 100 | > 100 | > 100 |  |  |  |  |  |  |  | > 100 |  | > 100 |  | 
COc1ccc(-c2cn3ccsc3n2)cc1 | > 100 | > 100 | > 100 | > 100 | > 100 | > 100 | > 100 | > 100 |  |  |  |  |  |  |  |  |  |  |  | 
Cc1ccc(Nc2nc3c(s2)C(=O)c2ccccc2C3=O)c(C)c1 | 36.6 | 24.1 | 62.5 | 54.2 | 33 | 29.4 | 33.1 | 27.3 |  |  |  |  |  |  |  |  |  |  |  | 
COc1cc(OC(=O)c2c(O)cc(O)c(O)c2C)cc(C)c1C(=O)Oc1cc(C)c(C(=O)O)c(O)c1 | > 100 | > 100 | > 100 | > 100 | > 100 | > 100 | > 100 | > 100 |  |  |  |  |  |  |  |  |  |  |  | 
C[N+](C)(C)CC1CCCC(C[N+](C)(C)C)C1=O (stereo unspecified) | 4 | 55.9 | 26 | 39.2 | 12.5 | 45.6 | 11.5 | 7.68 |  |  |  |  |  |  |  |  |  | 3.09 |  | 
